We go through 15 compounds from ChEMBL document CHEMBL5620386, “Synthesis, biological screening and in silico studies of new N-phenyl-4-(1,3-diaryl-1H-pyrazol-4-yl)thiazol-2-amine derivatives as potential antifungal and antitubercular agents” (Eur J Med Chem, 2023).

SMILES strings stand for the structures. ≈ marks a conversion by molar mass, not a printed value. Where “and” joins values, the source holds several entries; their conditions need not be identical. Equal entries are not always repeated. Calls of active or inactive are those of the source. No cut-off for these calls is given here.

The test system of data set [1] is Mycobacterium tuberculosis. Nature of the data set: Antitubercular activity Mycobacterium tuberculosis H37Rv strain ATCC No- 27294 assessed as prevention of color change from blue to pink using Almar Blue measured after 24 hrs by MABA assay. It is filed as functional.
For a further data set, the system named is Bacillus subtilis. The data set can be described thus: Antimicrobial activity against Bacillus subtilis NCIM 2063 assessed as zone of inhibition by well diffusion method. It is filed as functional.
Another data set concerns Candida albicans. Nature of the data set: Antifungal activity against Candida albicans NCIM 3100 assessed as zone of inhibition by well diffusion method. Format: functional.
Data set [2] relates to Aspergillus niger. Nature of the data set: Antifungal activity against Aspergillus niger ATCC 504 assessed as zone of inhibition by well diffusion method. Format: functional.
The subject of data set [3] is Proteus mirabilis. Nature of the data set: Antimicrobial activity against Proteus mirabilis NCIM 2388 assessed as absence of growth by well diffusion method. Format: functional.
The nature of data set [4]: Cytotoxicity against mouse 3T3-L1 cells assessed as cell viability at 25 ug/ml measured after 24 hrs by MTT assay relative to control. Format: toxicity, cell-based. The following applies: at 25 µg/mL, read-out: Activity.
Data set [5] deals with Aspergillus niger. The data set can be described thus: Antifungal activity against Aspergillus niger ATCC 504 assessed as absence of growth by well diffusion method. It is filed as functional.
Data set [6] has as its system Proteus mirabilis. The data set can be described thus: Antimicrobial activity against Proteus mirabilis NCIM 2388 assessed as zone of inhibition by well diffusion method. Format: functional.
A further data set has as its system Escherichia coli. Nature of the data set: Antimicrobial activity against Escherichia coli NCIM 2574 assessed as zone of inhibition by well diffusion method. Format: functional.
In data set [7] the test system is Staphylococcus aureus. The data set can be described thus: Antimicrobial activity against Staphylococcus aureus NCIM 2178 assessed as absence of growth by well diffusion method. It is filed as functional.
Data set [8] relates to Staphylococcus aureus. The data set can be described thus: Antimicrobial activity against Staphylococcus aureus NCIM 2178 assessed as zone of inhibition by well diffusion method. It is filed as functional.
A short description of data set [9]: Cytotoxicity against mouse 3T3-L1 cells assessed as cell viability at 12.5 ug/ml measured after 24 hrs by MTT assay relative to control. It is filed as toxicity, cell-based. The note with it: at 12.5 µg/mL, read-out: Activity.

As for `CC[C@@H](CO)NCCN[C@@H](CC)CO` [ETHAMBUTOL], in data set [1], the MIC was 1.6 µg/mL and 7.83 µM.
Turning to `Cc1ccc(Nc2nc(-c3cn(-c4ccccc4)nc3-c3ccc(Cl)cc3)cs2)cc1`, the “inhibition zone (IZ)” value in the data set on Bacillus subtilis came to 12 mm; in the data set with Candida albicans, 10.2 mm; in the data set on Aspergillus niger [2], 18.2 mm; with Proteus mirabilis [6], 14 mm; with Staphylococcus aureus [8], 15 mm. For the same compound, the MIC in data set [1] is 1.6 µg/mL and 3.61 µM; in the data set with Proteus mirabilis [3], 125 µg/mL (≈ 282 µM); in the data set on Aspergillus niger [5], 15.6 µg/mL and 35.3 µM; in the data set on Staphylococcus aureus [7], 125 µg/mL (≈ 282 µM). In data set [4], the viability at 24 h, 25 ug/ml worked out at 72.9%. For the same compound, the “inhibition zone (IZ)” value in the data set on Escherichia coli is “inactive”. For the same compound, the viability at 24 h, 12.5 ug/ml in data set [9] came out at 83.8%.
Turning to `Cc1ccc(Nc2nc(-c3cn(-c4ccccc4)nc3-c3ccccc3)cs2)cc1`, the “inhibition zone (IZ)” value in the data set on Bacillus subtilis turned out to be 12 mm; with Candida albicans, 10.4 mm; in the data set on Aspergillus niger [2], 18.4 mm; in the data set on Proteus mirabilis [6], 15 mm; in the data set on Staphylococcus aureus [8], 15 mm. Moreover, the minimal inhibitory concentration (MIC) in data set [1] was 50 µg/mL and 122 µM; in the data set with Proteus mirabilis [3] it was 125 µg/mL (≈ 306 µM); in the data set with Aspergillus niger [5], 15.6 µg/mL and 38.3 µM; in the data set on Staphylococcus aureus [7], 125 µg/mL (≈ 306 µM). The “inhibition zone (IZ)” value with Escherichia coli was “inactive”.
Take `NC(=O)c1cnccn1` [PYRAZINAMIDE]: in data set [1], the MIC is 3.12 µg/mL and 25.4 µM.
On to `COc1ccc(Nc2nc(-c3cn(-c4ccc(F)cc4)nc3-c3ccc(Cl)cc3)cs2)cc1`, for which the “inhibition zone (IZ)” value in the data set with Bacillus subtilis is 12.2 mm; in the data set with Candida albicans, 11.4 mm; in the data set with Aspergillus niger [2], 18.8 mm; in the data set on Proteus mirabilis [6] it was 13.2 mm; with Staphylococcus aureus [8] it was 15 mm. For the same compound, the MIC in [1] was 1.6 µg/mL and 3.36 µM; in the data set with Aspergillus niger [5], 15.6 µg/mL and 32.8 µM; with Staphylococcus aureus [7], 125 µg/mL (≈ 262 µM). For the same compound, in data set [4], the viability at 24 h, 25 ug/ml is 63.1%. For the same compound, in the data set with Escherichia coli, the “inhibition zone (IZ)” value was “inactive”. Besides, the viability at 24 h, 12.5 ug/ml in [9] was 72.9%.
For the compound `Clc1ccc(-c2nn(-c3ccccc3)cc2-c2csc(Nc3ccccc3)n2)cc1`, the “inhibition zone (IZ)” value in the data set on Bacillus subtilis was 12 mm; with Candida albicans it was 11 mm; in the data set with Aspergillus niger [2], 17.4 mm; with Proteus mirabilis [6], 15.2 mm; with Staphylococcus aureus [8], 14 mm. Also, the minimal inhibitory concentration (MIC) in [1] was 25 µg/mL and 58.4 µM; in the data set on Proteus mirabilis [3], 125 µg/mL (≈ 291 µM); in the data set on Aspergillus niger [5], 31.2 µg/mL and 72.8 µM; with Staphylococcus aureus [7], 125 µg/mL (≈ 291 µM). Besides, the “inhibition zone (IZ)” value in the data set on Escherichia coli is “inactive”.
On to `Clc1ccc(Nc2nc(-c3cn(-c4ccccc4)nc3-c3ccccc3)cs2)cc1`, for which the “inhibition zone (IZ)” value in the data set on Bacillus subtilis came out at 12.2 mm; in the data set on Candida albicans it was 11.2 mm; with Aspergillus niger [2], 19.2 mm; with Proteus mirabilis [6] it was 14.8 mm; in the data set on Staphylococcus aureus [8], 15.8 mm. The MIC in [1] was 25 µg/mL and 58.4 µM; in the data set on Proteus mirabilis [3], 125 µg/mL (≈ 291 µM); in the data set on Aspergillus niger [5], 15.6 µg/mL and 36.5 µM; in the data set on Staphylococcus aureus [7], 62.5 µg/mL and 146 µM. In addition, the “inhibition zone (IZ)” value in the data set on Escherichia coli is “inactive”.
On to `NNC(=O)c1ccncc1` [ISONIAZID], for which the minimal inhibitory concentration (MIC) in [1] is 1.6 µg/mL and 11.7 µM.
For the compound `COc1ccc(Nc2nc(-c3cn(-c4ccccc4)nc3-c3ccccc3)cs2)cc1`, the “inhibition zone (IZ)” value in the data set on Bacillus subtilis is reported as 12.75 mm; in the data set with Candida albicans, 11.6 mm; with Aspergillus niger [2], 20 mm; in the data set on Proteus mirabilis [6], 14.2 mm; in the data set on Staphylococcus aureus [8], 15 mm. For the same compound, the minimal inhibitory concentration (MIC) in data set [1] is 25 µg/mL and 58.9 µM; in the data set with Proteus mirabilis [3] it was 125 µg/mL (≈ 294 µM); in the data set on Aspergillus niger [5], 15.6 µg/mL and 36.8 µM; with Staphylococcus aureus [7] it was 125 µg/mL (≈ 294 µM). In the data set with Escherichia coli, the “inhibition zone (IZ)” value was “inactive”.
`CO[C@H]1/C=C/O[C@@]2(C)Oc3c(C)c(O)c4c(O)c(c(/C=N/N5CCN(C)CC5)c(O)c4c3C2=O)NC(=O)/C(C)=C\C=C\[C@H](C)[C@H](O)[C@@H](C)[C@@H](O)[C@@H](C)[C@H](OC(C)=O)[C@@H]1C` [RIFAMPIN]: the MIC in data set [1] was 0.8 µg/mL and 0.972 µM.
On to `Fc1ccc(-n2cc(-c3csc(Nc4ccc(Cl)cc4)n3)c(-c3ccc(Cl)cc3)n2)cc1`, for which the “inhibition zone (IZ)” value was 12.6 mm in the data set on Bacillus subtilis; 10.4 mm in the data set on Candida albicans; 19 mm with Aspergillus niger [2]; 13.6 mm with Proteus mirabilis [6]; 11 mm in the data set on Escherichia coli; 15 mm in the data set on Staphylococcus aureus [8]. Besides, the MIC in [1] is 1.6 µg/mL and 3.33 µM; in the data set on Aspergillus niger [5], 15.6 µg/mL and 32.5 µM; in the data set on Staphylococcus aureus [7] it was 125 µg/mL (≈ 260 µM). In addition, the viability at 24 h, 25 ug/ml in data set [4] worked out at 56.7%. Further, the viability at 24 h, 12.5 ug/ml in data set [9] is 74.4%.
Take `Fc1ccc(-n2cc(-c3csc(Nc4ccccc4)n3)c(-c3ccccc3)n2)cc1`: the “inhibition zone (IZ)” value in the data set on Bacillus subtilis turned out to be 12 mm; with Candida albicans, 10 mm; in the data set with Aspergillus niger [2] it was 18.6 mm; with Proteus mirabilis [6], 13.8 mm; with Staphylococcus aureus [8] it was 15 mm. For the same compound, the MIC in data set [1] is 12.5 µg/mL and 30.3 µM; in the data set with Aspergillus niger [5], 15.6 µg/mL and 37.9 µM; with Staphylococcus aureus [7], 125 µg/mL (≈ 303 µM). In addition, the viability at 24 h, 25 ug/ml in [4] amounted to 94.8%. Besides, the “inhibition zone (IZ)” value in the data set on Escherichia coli is “inactive”. In [9], the viability at 24 h, 12.5 ug/ml worked out at 99.5%.
With `COc1ccc(Nc2nc(-c3cn(-c4ccc(F)cc4)nc3-c3ccccc3)cs2)cc1`, the “inhibition zone (IZ)” value is given as 12.4 mm in the data set with Bacillus subtilis; 10.4 mm in the data set on Candida albicans; 19.2 mm in the data set with Aspergillus niger [2]; 13.8 mm in the data set with Proteus mirabilis [6]; 15 mm in the data set with Staphylococcus aureus [8]. The MIC in data set [1] is 3.12 µg/mL and 7.07 µM; in the data set with Aspergillus niger [5] it was 15.6 µg/mL and 35.3 µM; in the data set with Staphylococcus aureus [7], 125 µg/mL (≈ 282 µM). Besides, the viability at 24 h, 25 ug/ml in data set [4] came out at 97.2%. In addition, the “inhibition zone (IZ)” value in the data set with Escherichia coli is “inactive”. Besides, the viability at 24 h, 12.5 ug/ml in data set [9] stood at 98.2%.
As to `Cc1ccc(Nc2nc(-c3cn(-c4ccccc4)nc3-c3ccc(C)cc3)cs2)cc1`, the “inhibition zone (IZ)” value was 13.2 mm in the data set with Bacillus subtilis; 11.4 mm in the data set on Candida albicans; 18 mm in the data set on Aspergillus niger [2]; 15 mm with Proteus mirabilis [6]; 13 mm in the data set on Staphylococcus aureus [8]. The minimal inhibitory concentration (MIC) in data set [1] is 1.6 µg/mL and 3.79 µM; in the data set with Proteus mirabilis [3], 125 µg/mL (≈ 296 µM); with Aspergillus niger [5], 15.6 µg/mL and 37 µM. In the data set on Escherichia coli, the “inhibition zone (IZ)” value was “inactive”. Besides, the viability at 24 h, 12.5 ug/ml in [9] is 70.1%.
For `Cc1ccc(-c2nn(-c3ccccc3)cc2-c2csc(Nc3ccc(Cl)cc3)n2)cc1`, the “inhibition zone (IZ)” value in the data set on Bacillus subtilis is on record as 13.8 mm; in the data set with Candida albicans, 10 mm; with Aspergillus niger [2] it was 20 mm; in the data set with Proteus mirabilis [6] it was 13.8 mm; with Staphylococcus aureus [8], 16 mm. The MIC in data set [1] was 0.8 µg/mL and 1.8 µM; with Aspergillus niger [5], 15.6 µg/mL and 35.3 µM; with Staphylococcus aureus [7] it was 62.5 µg/mL and 141 µM. Further, the viability at 24 h, 25 ug/ml in data set [4] was found to be 61.8%. In addition, in the data set on Escherichia coli, the “inhibition zone (IZ)” value was “inactive”. Moreover, the viability at 24 h, 12.5 ug/ml in data set [9] was 67.5%.
